Results from US20250186408A1, “TREATMENT OF PHARMACORESISTANT EPILEPSY” (Katholieke Universiteit Leuven, priority 2021, published 2025).
In brackets after ≈: the same amount, converted by molar mass. Where two headings read alike, the source gives them in different places.

Legend:
[1] = biological target: T1, NMDAR (1A/2B) (Homo sapiens, UniProt Q05586+Q13224); test: Ion Channel NMDAR (1A/2B) Blocker; type: cell-based; conditions: for Emax: Ion Channel NMDAR (1A/2B) Blocker, read-out: Max response
[2] = Aqueous solubility; type: physicochemical
Excerpt: In vitro ADME profiling of compounds was done by Eurofins Panlabs Inc (St Charles, MO, USA) using their ADME-Tox service (Cat Ref P375, Tier 1 ADME Panel). […] (28). The atom-based log P calculation method, called OsirisP, uses as an increment system and adds contributions of every atom based on its atom type. The prediction engine distinguishes a total of 368 atom types and was optimized using a training set of more than 5000 molecules with experimentally determined log P values. The free prediction engine has proven to outperform many alternative calculation methods (29).
SGF, SIF and PBS buffers were prepared as follows: 34.2 mM NaCl, 84.7 mM HCl, 3.2 g/L pepsin (pH 2) for SGF, 50 mM KH2PO4, 38 mM NaOH, 10 g/L pancreatin (pH 7.5) for SIF and 137 mM NaCl, 2.7 mM KCl, 8.1 mM Na2HPO4 and 1.5 mM KH2PO4 (pH 7.4) for PBS. Test compounds were prepared at 200 μM concentrations in the corresponding buffer from a 10 mM stock solution (final solvent concentration of 2% DMSO). Buffer samples were mixed thoroughly followed by a 24 h incubation at room temperature. Samples were centrifuged and the supernatant was used for HPLC analysis. A calibration standard of the test compound was prepared at 200 μM in methanol/water (3:2 v/v) from the stock solution on the day of the analysis. Metoprolol, rifampicin, ketoconazole, phenytoin, haloperidol, simvastatin, diethylstilbestrol and tamoxifen were included in each assay. Aqueous solubility (μM) was determined by comparing peak areas.

[3] = biological target: hERG (Homo sapiens, UniProt Q12809); test: Ion Channel hERG Blocker; type: cell-based; conditions: for Emax at 30 min: human, read-out: Max response; for IC50: read-out: RC50, result type IC50
[4] = biological target: T2, LCK (Homo sapiens, UniProt P06239); test: Binding (KINOMEscan) LCK Inhibitor; conditions: for IC50: read-out: RC50, result type IC50; for Emax: read-out: Max response
T2 construct: purchased Eurofins DiscoverX Corporation 87-1003DR; host or cells: E. coli BL21-derived host (T7 phage) or HEK-293
Protocol: For most assays, kinase-tagged T7 phage strains were grown in parallel in 24-well blocks in an E. coli host derived from the BL21 strain. E. coli were grown to log-phase and infected with T7 phage from a frozen stock (multiplicity of infection=0.4) and incubated with shaking at 32° C. until lysis (90-150 min). The lysates were centrifuged (6,000×g) and filtered (0.2 μm) to remove cell debris. The remaining kinases were produced in HEK-293 cells and subsequently tagged with DNA for qPCR detection. Streptavidin-coated magnetic beads were treated with biotinylated small molecule ligands for 30 min at RT to generate affinity resins for kinase assays. The liganded beads were blocked with excess biotin and washed with blocking buffer (SeaBlock (Pierce), 1% BSA, 0.05% Tween 20, 1 mM DTT) to remove unbound ligand and to reduce non-specific phage binding. […] All reactions were performed in polypropylene 384-well plates in a final volume of 0.02 mL. […] The beads were then re-suspended in elution buffer (1×PBS, 0.05% Tween 20, 0.5 μM non-biotinylated affinity ligand) and incubated at RT with shaking for 30 min. The kinase concentration in the eluates was measured by qPCR.
The kinase concentration in the eluates was measured by qPCR. qPCR reactions were assembled by adding 2.5 μL of kinase eluate to 7.5 μL of qPCR master mix containing 0.15 μM amplicon primers and 0.15 μM amplicon probe. The qPCR protocol consisted of a 10 min hot start at 95° C., followed by 35 cycles of 95° C. for 15 sec, 60° C. for 1 min.
Binding constants (Kds) were calculated with a standard dose-response curve using the Hill equation: […]

[5] = biological target: KvLQT1/minK (Homo sapiens, UniProt P51787); test: Ion Channel KvLQT1/minK Blocker; type: cell-based; conditions: for Emax: read-out: Max response
[6] = biological target: T1, NMDAR (1A/2B); test: Ion Channel NMDAR (1A/2B) Opener; type: cell-based; conditions: for Emax: Ion Channel NMDAR (1A/2B) Opener, read-out: Max response
[7] = biological target: T3, PDE3A (Homo sapiens, UniProt Q14432); test: Enzymatic PDE3A Inhibitor; type: biochemical; conditions: for IC50: read-out: RC50, result type IC50; for Emax: read-out: Max response
T3 construct: purchased Signal Chem
Protocol: Enzyme preparations were sourced from various vendors-AChE (R&D Systems), COX1 and COX2 (BPS Bioscience), MAOA (Sigma), PDE3A and PDE4D2 (Signal Chem). AChE: enzyme and test compound were pre-incubated for 15 min at RT before substrate addition. Acetylthiocholine and DTNB were added and incubated at RT for 30 min. Signal was detected by measuring absorbance at 405 nm. COX1 and COX2: enzyme stocks were diluted in assay buffer (40 mM Tris-HCl, 1×PBS, 0.5 mM Phenol, 0.01% Tween 20 and 10 nM Hematin) and allowed to equilibrate with compounds at RT for 30 min (binding incubation). Arachidonic acid (1.7 μM) and Ampliflu Red (2.5 μM) were prepared and dispended into a reaction plate. Plates were read immediately on a fluorimeter with the emission detection at 590 nm and excitation wavelength 544 nm. MAOA: enzyme and test compound were pre-incubated for 15 min at 37° C. before substrate addition. The reaction was initiated by addition of kynuramine and incubated at 37° C. for 30 min. The reaction was terminated by addition of NaOH. The amount of 4-hydroquinoline formed was determined through spectrofluorometric readout with the emission detection at 380 nm and excitation wavelength 310 nm. PDE3A and PDE4D2: enzyme and test compound were pre-incubated for 15 min at RT before substrate addition. cAMP substrate (at a concentration equal to EC80) was added and incubated at RT for 30 min. Enzyme reaction was terminated by addition of 9 mM IBMX. Signal was detected using the HitHunter® cAMP detection kit. Microplates were transferred to a PerkinElmer Envision™ instrument and read out as described for each assay. […] For enzyme activity assays, percentage inhibition was calculated using the following equation: […]

[8] = biological target: OPRD1 (Homo sapiens, UniProt P41143); test: cAMP OPRD1 Antagonist; conditions: for Emax: read-out: Max response
Protocol: In vitro pharmacological profiling of compounds was done against 78 functional assays for 47 common off-targets (30) by Eurofins DiscoverX Corporation (Fremont, CA, USA) using their SAFETYscan E/IC50 ELECT service (Cat Ref 87-1003DR, Safety47 Panel Dose Response). […] Compounds were tested in a range of 10 concentrations, following a 3-fold serial dilution, starting from 10 μM.
cAMP Hunter cell lines were expanded from freezer stocks. Prior to testing, cells were seeded in a total volume of 20 μL into white walled 384-well microplates and incubated at 37° C. cAMP modulation was determined using the DiscoverX HitHunter cAMP XS+ assay. For Gs agonist determination, cells were incubated with sample to induce response. For Gi agonist determination, cells were incubated with sample in the presence of EC80 forskolin to induce response. For both conditions, media was aspirated from cells and replaced with 15 μL 2:1 HBSS/10 mM HEPES:cAMP XS+ Ab reagent. Intermediate dilution of sample stocks was performed to generate 4× sample in assay buffer (containing 4×EC80 forskolin in the case of antagonist determination). 5 μL of 4× sample was added to cells and incubated at 37° C. or room temperature (RT) for 30 or 60 min. Final assay vehicle concentration was 1%. For antagonist determination, cells were pre-incubated with sample followed by agonist challenge at the EC80 concentration. Media was aspirated from cells and replaced with 10 μL 1:1 HBSS/HEPES:cAMP XS+ Ab reagent. 5 μL of 4× compound was added to the cells and incubated at 37° C. or RT for 30 min. 5 μL of 4×EC80 agonist was added to the cells and incubated at 37° C. or RT for 30 or 60 min. For Gi coupled GPCRs, EC80 forskolin was included. […] Microplates were read following signal generation with a PerkinElmer Envision™ instrument for chemiluminescent signal detection. Compound activity was analyzed using CBIS data analysis suite (ChemInnovation, CA).

[9] = biological target: nAChR (a4/b2) (Homo sapiens, UniProt P17787+P43681); test: Ion Channel nAChR (a4/b2) Blocker; type: cell-based; conditions: for Emax: Ion Channel nAChR (a4/b2) Blocker, read-out: Max response
[10] = aqueous buffer, kinetic from dmso stock, PBS pH 7.4, tested at 200 μM, 24 h room temperature, read-out: aqueous solubility PBS (pH 7.4)
[11] = fassgf or other biorelevant, kinetic from dmso stock, simulated intestinal fluid pH 7.5, tested at 200 μM, read-out: aqueous solubility simulated intestinal fluid
[12] = kinetic from dmso stock, simulated gastric fluid pH 2, tested at 200 μM, read-out: aqueous solubility simulated gastric fluid

Chain of OPRD1 (P41143 whole entry): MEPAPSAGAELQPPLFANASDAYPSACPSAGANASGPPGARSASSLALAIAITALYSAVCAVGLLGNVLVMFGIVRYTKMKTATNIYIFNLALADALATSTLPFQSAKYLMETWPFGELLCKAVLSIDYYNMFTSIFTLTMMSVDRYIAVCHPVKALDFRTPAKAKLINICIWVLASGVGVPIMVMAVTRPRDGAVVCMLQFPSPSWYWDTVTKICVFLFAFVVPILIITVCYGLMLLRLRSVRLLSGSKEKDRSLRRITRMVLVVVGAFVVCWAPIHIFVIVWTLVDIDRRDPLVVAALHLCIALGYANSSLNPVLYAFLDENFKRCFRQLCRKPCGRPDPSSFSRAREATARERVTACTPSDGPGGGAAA
T3 sequence (Q14432 whole entry): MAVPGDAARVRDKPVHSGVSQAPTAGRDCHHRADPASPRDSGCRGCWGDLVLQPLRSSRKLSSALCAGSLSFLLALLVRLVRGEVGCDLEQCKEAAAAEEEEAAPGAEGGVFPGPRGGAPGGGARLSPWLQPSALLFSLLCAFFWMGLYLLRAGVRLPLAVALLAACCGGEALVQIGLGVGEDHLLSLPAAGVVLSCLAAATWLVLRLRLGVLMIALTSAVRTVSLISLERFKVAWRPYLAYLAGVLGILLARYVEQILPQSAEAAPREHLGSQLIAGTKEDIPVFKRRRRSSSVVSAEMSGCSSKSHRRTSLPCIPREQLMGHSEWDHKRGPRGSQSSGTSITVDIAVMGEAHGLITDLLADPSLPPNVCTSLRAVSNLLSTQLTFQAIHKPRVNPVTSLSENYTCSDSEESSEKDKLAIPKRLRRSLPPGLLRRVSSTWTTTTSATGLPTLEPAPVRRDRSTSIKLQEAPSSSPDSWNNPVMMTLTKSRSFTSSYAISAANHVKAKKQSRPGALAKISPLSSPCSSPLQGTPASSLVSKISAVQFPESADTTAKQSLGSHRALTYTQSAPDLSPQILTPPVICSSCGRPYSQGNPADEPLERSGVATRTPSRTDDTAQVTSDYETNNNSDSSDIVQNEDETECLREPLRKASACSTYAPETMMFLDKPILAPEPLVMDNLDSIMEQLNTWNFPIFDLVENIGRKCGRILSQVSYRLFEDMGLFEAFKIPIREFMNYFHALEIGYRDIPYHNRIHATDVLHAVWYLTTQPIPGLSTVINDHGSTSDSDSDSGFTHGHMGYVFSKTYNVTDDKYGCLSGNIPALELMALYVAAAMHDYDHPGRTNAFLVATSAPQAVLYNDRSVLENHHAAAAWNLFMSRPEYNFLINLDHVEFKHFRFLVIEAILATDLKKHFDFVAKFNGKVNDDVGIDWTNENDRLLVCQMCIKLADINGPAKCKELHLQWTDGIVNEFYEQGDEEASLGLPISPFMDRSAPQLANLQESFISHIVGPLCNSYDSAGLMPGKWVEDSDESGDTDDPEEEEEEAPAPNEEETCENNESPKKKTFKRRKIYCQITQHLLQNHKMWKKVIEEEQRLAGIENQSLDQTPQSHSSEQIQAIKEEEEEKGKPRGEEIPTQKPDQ
T1 sequence (Q13224 27-1484, other chains not shown): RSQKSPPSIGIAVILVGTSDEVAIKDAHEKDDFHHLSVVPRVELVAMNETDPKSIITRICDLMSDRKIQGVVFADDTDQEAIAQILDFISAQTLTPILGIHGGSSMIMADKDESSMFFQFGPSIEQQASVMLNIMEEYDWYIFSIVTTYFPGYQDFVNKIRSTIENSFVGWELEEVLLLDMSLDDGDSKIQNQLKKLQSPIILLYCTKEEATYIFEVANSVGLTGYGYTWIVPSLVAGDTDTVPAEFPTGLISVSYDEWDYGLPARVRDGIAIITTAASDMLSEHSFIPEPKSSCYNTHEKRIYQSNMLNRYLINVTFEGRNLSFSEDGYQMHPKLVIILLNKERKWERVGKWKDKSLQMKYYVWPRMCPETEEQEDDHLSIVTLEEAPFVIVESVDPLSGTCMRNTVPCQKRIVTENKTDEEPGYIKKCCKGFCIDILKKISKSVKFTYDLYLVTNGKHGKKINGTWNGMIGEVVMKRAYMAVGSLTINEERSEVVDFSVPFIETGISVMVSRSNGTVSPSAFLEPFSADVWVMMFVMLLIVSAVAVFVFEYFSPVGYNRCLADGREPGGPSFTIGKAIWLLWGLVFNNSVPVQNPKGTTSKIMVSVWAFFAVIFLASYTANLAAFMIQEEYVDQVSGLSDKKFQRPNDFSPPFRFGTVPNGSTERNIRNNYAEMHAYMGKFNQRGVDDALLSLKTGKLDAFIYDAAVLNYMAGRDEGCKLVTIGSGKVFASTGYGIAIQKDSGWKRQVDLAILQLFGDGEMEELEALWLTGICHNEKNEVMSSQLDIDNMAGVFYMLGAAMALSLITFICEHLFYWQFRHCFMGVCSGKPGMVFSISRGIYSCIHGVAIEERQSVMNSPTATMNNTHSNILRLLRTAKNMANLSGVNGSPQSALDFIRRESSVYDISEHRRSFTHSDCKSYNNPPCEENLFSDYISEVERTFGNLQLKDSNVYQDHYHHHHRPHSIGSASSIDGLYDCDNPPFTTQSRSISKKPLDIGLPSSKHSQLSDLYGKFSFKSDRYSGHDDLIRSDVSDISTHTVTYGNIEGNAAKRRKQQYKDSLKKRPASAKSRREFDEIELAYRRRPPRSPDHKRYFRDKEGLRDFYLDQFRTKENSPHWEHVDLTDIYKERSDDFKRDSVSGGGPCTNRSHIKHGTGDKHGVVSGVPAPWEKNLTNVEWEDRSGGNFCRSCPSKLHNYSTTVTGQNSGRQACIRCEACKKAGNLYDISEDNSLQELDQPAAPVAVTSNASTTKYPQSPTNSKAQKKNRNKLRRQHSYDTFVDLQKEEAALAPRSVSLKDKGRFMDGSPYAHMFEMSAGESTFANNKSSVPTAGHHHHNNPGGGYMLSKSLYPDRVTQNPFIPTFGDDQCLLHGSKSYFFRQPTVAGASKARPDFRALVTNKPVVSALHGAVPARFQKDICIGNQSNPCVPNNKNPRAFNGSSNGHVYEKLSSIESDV
Chain of nAChR (a4/b2) (P43681 29-627 limits assumed): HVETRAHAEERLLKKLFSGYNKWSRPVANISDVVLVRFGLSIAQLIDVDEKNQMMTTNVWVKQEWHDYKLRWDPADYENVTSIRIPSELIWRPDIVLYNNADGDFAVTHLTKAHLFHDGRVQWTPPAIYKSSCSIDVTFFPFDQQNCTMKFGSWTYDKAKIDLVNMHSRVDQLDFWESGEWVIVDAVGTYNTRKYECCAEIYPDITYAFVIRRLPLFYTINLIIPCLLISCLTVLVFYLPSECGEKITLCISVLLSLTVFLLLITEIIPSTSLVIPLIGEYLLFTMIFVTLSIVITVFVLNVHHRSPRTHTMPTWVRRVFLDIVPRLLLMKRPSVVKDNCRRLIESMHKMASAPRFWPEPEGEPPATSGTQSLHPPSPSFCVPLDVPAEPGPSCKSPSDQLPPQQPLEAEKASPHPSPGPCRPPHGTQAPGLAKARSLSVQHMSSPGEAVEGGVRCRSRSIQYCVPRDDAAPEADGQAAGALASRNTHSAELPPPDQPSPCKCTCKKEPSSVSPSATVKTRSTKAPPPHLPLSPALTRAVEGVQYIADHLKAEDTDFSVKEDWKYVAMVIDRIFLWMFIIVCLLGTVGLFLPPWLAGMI
Chain of nAChR (a4/b2) (P17787 26-502): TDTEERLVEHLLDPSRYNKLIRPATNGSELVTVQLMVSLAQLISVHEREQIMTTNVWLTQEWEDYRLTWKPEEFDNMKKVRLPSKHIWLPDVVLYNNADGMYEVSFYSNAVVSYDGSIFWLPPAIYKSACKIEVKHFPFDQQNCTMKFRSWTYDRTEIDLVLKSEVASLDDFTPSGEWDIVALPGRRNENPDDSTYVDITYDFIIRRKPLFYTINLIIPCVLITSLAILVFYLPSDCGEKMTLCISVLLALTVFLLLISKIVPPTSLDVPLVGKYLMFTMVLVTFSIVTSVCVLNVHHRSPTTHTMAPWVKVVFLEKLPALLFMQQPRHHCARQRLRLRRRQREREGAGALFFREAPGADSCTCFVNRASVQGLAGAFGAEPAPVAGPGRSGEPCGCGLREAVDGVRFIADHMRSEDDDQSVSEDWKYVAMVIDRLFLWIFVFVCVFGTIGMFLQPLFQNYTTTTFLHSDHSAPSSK
T2 sequence (P06239 whole entry): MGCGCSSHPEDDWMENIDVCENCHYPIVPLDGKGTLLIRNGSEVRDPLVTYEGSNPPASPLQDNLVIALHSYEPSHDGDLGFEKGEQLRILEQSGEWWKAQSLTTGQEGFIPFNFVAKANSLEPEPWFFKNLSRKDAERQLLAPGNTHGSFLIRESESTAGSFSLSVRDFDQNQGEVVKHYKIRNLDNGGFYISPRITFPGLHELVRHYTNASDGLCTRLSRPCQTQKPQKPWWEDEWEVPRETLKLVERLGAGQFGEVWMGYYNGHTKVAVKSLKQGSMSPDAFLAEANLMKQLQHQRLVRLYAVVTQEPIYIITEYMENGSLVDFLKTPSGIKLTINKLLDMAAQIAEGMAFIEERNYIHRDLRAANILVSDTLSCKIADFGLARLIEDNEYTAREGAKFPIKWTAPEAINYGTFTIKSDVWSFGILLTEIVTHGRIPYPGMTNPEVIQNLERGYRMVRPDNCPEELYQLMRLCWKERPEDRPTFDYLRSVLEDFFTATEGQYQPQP

Row | Compound | IC50 [1] [µM] | Emax [1] [%] | solubility at 24 h [2, 10] [µM] | solubility at 24 h [2, 11] [µM] | solubility at 24 h [2, 12] [µM] | Emax at 30 min [3] [%] | IC50 [3] [µM] | IC50 ([4]; Binding LCK Inhibitor) [µM] | EC50 [6] [µM] | Emax [6] [%] | IC50 ([7]; Enzymatic PDE3A Inhibitor) [µM] | IC50 [8] [µM] | Emax [8] [%] | IC50 [9] [µM] | Emax [9] [%] | further results
1 | CC(C)(C)c1ccc(C#CC(O)c2ccccc2)cc1 (racemic) [Compound 3.3, rac-3-(4-(tert-butyl)phenyl)-1-phenylprop-2-yn-1-ol] | > 10 | 0 | 17.7 (≈ 4.68 µg/mL) | 102 (≈ 27.1 µg/mL) | 24.5 (≈ 6.48 µg/mL) | 3.8 | > 10 | > 10 | > 10 | 0 | > 10 | > 10 | 5.9 | 6.9 | 73.9 | Emax [4]: 0%; IC50 [5]: > 10 µM; Emax [5]: 47.5%; Emax [7]: 0.6%
2 | Clc1cccc(C#Cc2n[nH]c3ncccc23)c1 [Compound 10.1, 3-((3-chlorophenyl)ethynyl)-1H-pyrazolo[3,4-b]pyridine] | > 10 | 0 | < 0.1 | 26.7 (≈ 6.77 µg/mL) | 26.7 (≈ 6.77 µg/mL) | 6.6 | > 10 | > 10 | > 10 | 0 | > 10 | > 10 | 0 | > 10 | 1.5 | solubility at 24 h ([2]; PBS pH 7.4, tested at 200 μM, 24 h room temperature, read-out: aqueous solubility PBS (pH 7.4)): <0.1 µM; Emax ([4]; Binding LCK Inhibitor): 0%; Emax ([5]; Ion Channel KvLQT1/minK Blocker): 0%; IC50 ([5]; Ion Channel KvLQT1/minK Blocker, read-out: RC50, result type IC50): > 10 µM; Emax ([7]; Enzymatic PDE3A Inhibitor): 0.1%
